Patent publication US6716883B1, “Composition useful to treat periodontal disease” (priority 1998, dated 2004)

How the values were obtained:
Type in all cases: cell-based
[1] = test system: chick periosteal osteogenesis (CPO) cultures; experiment: Alkaline phosphatase activity (APA) in CPO cultures
Experimental: In this experiment, the chick periosteal osteogenesis (CPO) model was used to determine if bone loss is induced by dioxin. The CPO model has been described in detail previously (Nijweide, Proc. Kon. Ned. Akad. Wet. 1975. C78:410-417) and was prepared for the purposes of this experiment as set out below.
Following sacrifice, two triangular calvarial explants were removed by cutting along the central suture, transversely along the posterior suture and laterally above the eye in 17-day-old embryonic chicks. The ectocranial periosteum (outer curved surface) was peeled off using forceps under microscopic magnification and folded so that the surface originally facing bone was in apposition to itself as described previously (Tenenbaum et al., Calcif Tissue Int. 34:76-79). The folded explant was then placed on a Millipore filter (HA 0.45 μm), which was transferred onto a stainless steel grid resting in the center well of an organ culture dish (Falcon Plastics, Lincoln Park, N.J., USA) that was filled with culture media to a level such that the culture was supported at the gas-liquid interface (˜1.5 ml of media). Three cultures were placed in each dish which was then covered and incubated at 37° C. in a humidified atmosphere containing 5% CO2 in air. Media changes occurred on days 2 and 4, and the medium was comprised of BGJb medium (Fitton-Jackson Modification) with L-glutamine (Gibco, Grand Island, N.Y., USA) and supplemented with 2% antibiotic (10,000 units/ml Penicillin G sodium, 10,000 μg/ml Streptomycin sulfate in 0.85% saline) (Gibco), 10% fetal calf serum (Gibco), 10^−7M dexamethasone (Sigma, St. Louis, Mo., USA), 10 mM β-glycerophosphate, and 300 μg/ml L-ascorbate (Gibco).
(§1) For the purposes of this investigation, the effects of a potent aryl hydrocarbon, TCDD (2,3,7,8-tetrachlorodibenzo-p-dioxin or dioxin) on the early events occurring during osteogenesis were determined. The CPO model traverses a number of phases of osteogenesis. Therefore, it was possible to design temporal or “window” experiments in order to determine the phases of osteogenesis that were sensitive to TCDD and/or resveratrol. […] All cultures were maintained for the entire 6-day period. The compounds were administered over four different temporal phases, as outlined below in the time-line diagram: a) days 0-6; b) days 0-2; c) days 2-4 or d) days 4-6 (Note: all cultures were stopped at 6 days). Results were compared to e) vehicle alone over days 0-6. [drawing 1]
On day 6, the culture dishes were placed on ice and individual cultures were transferred to separate test tubes and stored at −20° C. for further analysis.
CPO cultures were assayed for AP activity using paranitrophenol-phosphate (pN-p) as the substrate (Demetriou et al. J Biol Chem. 1996. 271(22)12755-61). The intensity of the colour change was evaluated using a Titertek® Multiskan® MCC/340 Spectrophotometer (Flow Laboratories, Mississauga, ON, Canada) and compared to a standard curve obtained from a serial dilution of 10 mM pN with bicarbonate buffer (pH 7.4) in flat bottomed Titertek 96-well plates as described previously (Demetriou et al., 1996, supra). The reaction was stopped with 100 μl of 0.2N NaOH and pN-p levels read at 405 nm on the Titertek. Calcium incorporation was assayed in the pellets produced from centrifugation of the homogenized CPO cultures following hydrolysis in 500 μl of 0.5N HCl and then measured using atomic absorption spectrophotometry (Sukhu et al. Endocrinology. 1997. 138 (8):3269-75).

[2] = test system: chick periosteal osteogenesis (CPO) cultures; experiment: Newly synthesized 14C-labeled collagen type I in CPO cultures
Experimental: as §1
Radiolabeled collagen was measured in CPO cultures incubated with ^14C-glycine (Amersham, 59 mCi/mMole) at a concentration of 10 μci/ml media in each group over days 4-6. The cultures were hydrolyzed in 0.1 ml of 0.1N HCl and vortexed. After 15 minutes, the supernatant was removed and saved in a 2 ml eppendorf tube. The culture was transferred to a 0.5 ml eppendorf tube containing 0.1 ml of pepsin (50 μg/ml in 0.1% glacial acetic acid) for further digestion of labeled collagen. These were maintained in a 15° C. water bath for 5 hours, vortexing the samples every hour. The supernatant was transferred to a new 0.5 ml eppendorf tube and was then lyophilized overnight. The amount of radiolabeled collagen was determined by gel electrophoresis as described hereunder. The lyophilized samples were reconstituted with 0.1 ml of a solution made of 70% sample buffer (10 mM Tris.HCl and 1 mM EDTA, pH 8.0) (Sigma-Aldrich Canada Ltd., Oakville, Canada), 2.5% SDS (Sigma), 5% β-mercaptoethanol (Sigma) and 0.01% bromophenol-blue (Sigma). […]
Fluorography was used to analyze the amount of newly synthesized ^14C-labeled collagen in each sample. […] The intensity of the resultant bands on the film was quantified using a laser densitometer to give a measure of the amount of newly synthesized collagen in each sample.

[3] = test system: rat SBMC (stromal bone marrow cell) line; experiment: Mineralization (Alizarin Red staining) in rat SBMC line
Experimental: Cells for the rat SBMC model were obtained from Dr. Sandu Pitaru (Tel Aviv University, Israel) and maintained in T25 tissue culture flasks (Sarstedt, Newton, N.C., USA) in a medium composed of αMEM+RNA+DNA+antibiotic supplemented with 10% fetal calf serum, 10 mM β-glycerophosphate, 10^−8M dexamethasone, 50 μg/ml vitamin C and 3 ng/ml fibroblast growth factor. The media were changed every 48 hours and the cells subcultured when almost confluent (approximately every 72 hrs). Cells were grown for a period of 1-2 weeks to allow for formation of mineralized bone nodules.
SBMC cultures were assayed for AP activity using paranitrophenol-phosphate (pN-p) as the substrate as described above for CPO cultures. In some cases, AP activity was also measured using direct staining of SBMC cultures in 96 well plates as described previously (Tenenbaum et al., Anat Rec. 1995. 242(2):200-10). Mineralization in the SBMC cultures was determined using Alizarin Red staining in situ that was assessed with the Titertek spectrophotometer set at 525 nm.

rat bone marrow cultures = experiment: APA in rat bone marrow cultures treated with BaP; details: resveratrol (10^−6M) added with BaP
Experimental: In this experiment, the effects of the aryl hydrocarbon, benzo-a-pyrene (BaP) on the early events occurring during osteogenesis were determined. Ten-day old rat bone marrow cultures were treated with increasing concentrations of BaP. The effect of this treatment was monitored by APA as set out above.

SMILES	change in AP activity ([1]; 10^−6M resveratrol alone over days 0-6, 0-2, 2-4 or 4-6)	increase in AP activity in comparison to TCDD alone ([1]; resveratrol 10^−5M, 10^−6M and 10^−7M with TCDD, FIG. 2a)	newly synthesized collagen type I levels ([2]; 10^−6M resveratrol alone, compared to vehicle)	newly synthesized collagen type I level ([2]; co-treatment with TCDD and resveratrol, versus TCDD alone)	effect on TCDD-induced decrease in mineralization ([3]; resveratrol with TCDD)	reversal of BaP's inhibitory effect on alkaline phosphatase (rat bone marrow cultures)	reduction in AP activity ([1]; 10^−9M TCDD alone during days 0-2, p<0.05 vs. vehicle) [%]	change in AP activity ([1]; 10^−9M TCDD alone during days 2-4 or 4-6)	reduction in AP activity versus vehicle alone ([1]; 10^−9M TCDD over a 6-day period) [%]	decrease in newly synthesized collagen type I levels ([2]; 10^−9M TCDD alone, p>0.05)	reduction in mineralization (Alizarin Red Staining), dose dependence ([3]; TCDD 4.12×10^−11M to 1.52×10^−12M)	decrease in mineralization ([3]; in the presence of TCDD)
Oc1ccc(C=Cc2cc(O)cc(O)c2)cc1 [resveratrol, 3,5,4′-trihydroxystilbene]	No significant change in AP activity	2-4 fold	no effect	not significantly different	attenuated	reversal of BaP's inhibitory effect						
Clc1cc2c(cc1Cl)Oc1cc(Cl)c(Cl)cc1O2 [TCDD, 2,3,7,8-tetrachlorodibenzo-p-dioxin]							53	did not significantly alter AP activity	80	about 30%	dose dependant reduction in mineralization	approximately 75%
